In ChEMBL document CHEMBL3585288, “Synthesis, characterization and evaluation of the substituent effect on the amoebicide activity of new hydrazone derivatives” (Medchemcomm, 2014):

What follows are compounds tested on Entamoeba histolytica (assay: Amoebicidal activity against trophozoite stage of Entamoeba histolytica HM-1:IMSS assessed as growth inhibition after 72 hrs by carboxyfluorescein diacetate/propidium iodide staining-based fluorescence microscopic analysis).
Assay type: functional, organism-based

Row | Compound | IC50 [µM]
1 | C(=N\N=C\c1ccccc1)/c1ccccc1 | 96
2 | O=[N+]([O-])c1ccc(-c2ccc(/C=N/Nc3ccccc3)o2)cc1 | 0.98
3 | O=C(/C(=N/N=C(/C(=O)c1ccccc1)c1ccccc1)c1ccccc1)c1ccccc1 | 18
4 | O=[N+]([O-])c1ccc(-c2ccc(/C=N/N=C/c3ccc(-c4ccc([N+](=O)[O-])cc4)o3)o2)cc1 | 13
5 | C(=N\N(c1ccccc1)c1ccccc1)/c1cccs1 | 7.6
6 | O=[N+]([O-])c1ccc(-c2ccc(/C=N/N(c3ccccc3)c3ccccc3)o2)cc1 | 16
7 | O=[N+]([O-])c1cccc(/C=N/N(c2ccccc2)c2ccccc2)c1 | 19
8 | C(=N\Nc1ccccc1)/c1ccco1 | 120
9 | C(=N\N(c1ccccc1)c1ccccc1)/c1ccccc1 | 78
10 | Cc1ncc([N+](=O)[O-])n1CCO [METRONIDAZOLE] | 6.8

The compounds below were run on Entamoeba histolytica (assay: Potency index, ratio of metronidazole IC50 to compound IC50 for trophozoite stage of Entamoeba histolytica HM-1:IMSS).
Assay type: functional

Row | Compound | Ratio IC50
11 | O=[N+]([O-])c1ccc(-c2ccc(/C=N/Nc3ccccc3)o2)cc1 | 7
